The record followed here is US20190204402A1, “METHOD FOR POST-PROCESSING MRI IMAGES TO OBTAIN HEPATIC PERFUSION AND TRANSPORT PARAMETERS” (INSERM (INSTITUT NATIONAL DE LA SANTE DE LA RECHERCHE …, priority 2016, published 2019).

Each structure is given as a SMILES string. Where “and” joins values, the source holds several entries; their conditions need not be identical. Identical values can stand only once.

This data set concerns liver of patients with chronic liver diseases. Put plainly: Dynamic gadoxetate-enhanced MR imaging with dual-input three-compartment pharmacokinetic model, patients with chronic liver diseases. Type of data set: in vivo, human. The protocol: The feasibility of the method was evaluated in a prospective study with liver biopsy as a gold standard on patients with liver chronic liver diseases. The institutional ethics committee approved the protocol and informed consent was obtained from each subject. Twenty-one consecutive patients (4 women, 17 men; mean age, 51.0±10.2 years) who were suspected of having chronic liver disease on clinical and biological data underwent in the same period liver biopsy and MR imaging. Mean delay between MR imaging and liver biopsy was 2.5 days (range: 0-20 days). All subjects were fasting during six hours before MR imaging. Exclusion criteria were the usual contra-indications for MR imaging.
Percutaneous liver biopsy was performed with a 1.4-mm-diameter needle (Hepafix; Braun, Melsungen, Germany). In 6 patients with ascites and/or trouble of blood crasis, liver biopsy was performed through a transjugular approach using a catheter needle with a diameter of 1.1 mm (Cook Bloomington, Ind., USA). The liver samples were fixed in buffered formalin and embedded in paraffin. Sections, 4 μm thick, were stained with hematoxylin-eosin and Masson trichrome and assessed by a pathologist blinded to the clinical data and to the results of MR imaging. The stage of fibrosis from F0 to F4 was evaluated semiquantitatively on Masson trichrome-stained slides according to the METAVIR staging system. For further analysis of fibrosis severity, a three-level staging of fibrosis was used (F0-F1: minimal fibrosis, F2-F3: intermediate fibrosis, and F4: cirrhosis). Moreover, patients with F≥2 were considered having significant fibrosis.
MR imaging was performed on a Siemens Skyra 3.0 T system (Siemens Medical Solutions, Erlangen, Germany). […] The signal was collected with the 32-channel phased array body and the spine coils.
Gadoxetate (Primovist, Bayer, Berlin, Germany) was injected intravenously using an automatic injector (Medrad Spectris Solaris, Warrendale, PA) with an injection rate of 1 mL·s^-1 and flushed with physiologic saline (same volume and injection rate). The gadoxetate dose was 0.025 mmol·kg^-1.
Dynamic liver imaging was started simultaneously with the intravenous injection of gadoxetate and was performed in free breathing.
To do this, pauses were added between dynamics as follow: for the 280 first dynamics: no pause, the effective temporal resolution was 2.1 s; for the next 150 dynamics: 5 s pause, the effective temporal resolution was 7.1 s, for the 60 last dynamics; 8 s pause, the effective temporal resolution was 10.1 s. Dynamic acquisition duration was close to 38 minutes.
To simultaneously quantify hepatic micro-perfusion and function transport parameters, a model was developed. In the liver, the quantity of gadoxetate Q between τ and τ+dτ can be expressed as the difference between incoming Qin and outgoing gadoxetate quantities Qout. This means that:
To express R(t) with kinetic indices kij, the liver is modeled with a model according to which the liver is a dual input three compartments. The three compartments are the extracellular compartment, the hepatocyte compartment and the intrahepatic bile ducts. The extracellular compartment comprises the intravascular compartment and the Disse space's.
From the motion corrected dynamic frames, arterial and portal input were recorded with freehand regions of interest (ROI) drawn in the abdominal aorta and the portal vein respectively. Tissue response was measured from a ROI placed in the right hepatic lobe anterior segment (segments V-VIII) and the right lobe posterior segment (segments VI-VII), two large ROIs covering an extended region without visible large vessels were drawn on three central slices. For inputs function and tissue response, signal intensity was converted into relative gadoxetate concentration as follows:
To convert blood concentration into plasma concentration, the input functions were normalized by one minus hematocrit. A hematocrit of 45% was assumed in this study. […]

[1] abbreviates: intermediate fibrosis (F2-F3), n = 8.
Setting [2] is: minimal fibrosis (F0-F1), n = 9.

Take `CCOc1ccc(C[C@@H](CN(CCN(CC(=O)[O-])CC(=O)[O-])CC(=O)[O-])N(CC(=O)[O-])CC(=O)[O-])cc1.[Gd+3].[H+].[H+]` [gadoxetate]: the Biliary efflux is, setting by setting: (cirrhosis (F4), n = 4) 0.31±0.57 mL · min^−1 · 100 g^−1; under setting [1], 1.5±0.5 mL · min^−1 · 100 g^−1; under setting [2], 3.2±1.0 mL · min^−1 · 100 g^−1. The “E (hepatocyte uptake fraction)” value is 3.4±2.5% (cirrhosis (F4), n = 4); 8.7±3.1% under setting [1]; 12.0±3.8% under setting [2]. In addition, the “MTT (extracellular mean transit time)” value was 30.1 ± 12.5 s and 29.7 ± 9.7 s (cirrhosis (F4), n = 4); 14.1 ± 3.9 s under setting [1]; 15.0 ± 5.0 s under setting [2]. For the same molecule, the Sinusoidal backflux (cirrhosis (F4), n = 4) came out at 0.0012±0.002 mL · min^−1 · 100 g^−1; the Sinusoidal backflux under setting [1] was 0.021 ± 0.013 mL · min^−1 · 100 g^−1; the Sinusoidal backflux under setting [2] was found to be 0.035±0.012 mL · min^−1 · 100 g^−1. Besides, the “Ve (extracellular volume)” value is, setting by setting: (cirrhosis (F4), n = 4) 30.1 ± 12.5%; under setting [1], 21.8 ± 6.5%; under setting [2], 20.8 ± 6.2%. Further, the “k3 (biliary efflux), parametric map” value came to 3.53 mL·min^-1·100 g^-1 (single F0 patient, FIG. 13); 3.67 mL·min^-1·100 g^-1 (single F1 patient, FIG. 14); 2.23 mL·min^-1·100 g^-1 (single F2 patient, FIG. 15); 1.64 mL·min^-1·100 g^-1 (single F3 patient, FIG. 16).
